Experimental data reported in paper PMC10619133, “The catechol moiety of obafluorin is essential for antibacterial activity” (RSC Chemical Biology, 2023).
Values after ≈ are worked out from the molar mass of the structure shown. “Also recorded” adds a separate entry of the source. Where two headings read alike, the source gives them in different places.

How the values were obtained:
Streptococcus pyogenes = system: Streptococcus pyogenes; parameters: method as in doi:10.1021/jo00350a010; details: dosed systemically; cited from earlier work
EcThrRS = target: T1, EcThrRS (Escherichia coli, UniProt P0A8M3); experiment: Aminoacylation assay; format: biochemical, E. coli; details: enzyme 10 nM
T1 construct: His6 (N); made in house; host or cells: E. coli NiCo21(DE3)
T1 sequence (P0A8M3 whole entry): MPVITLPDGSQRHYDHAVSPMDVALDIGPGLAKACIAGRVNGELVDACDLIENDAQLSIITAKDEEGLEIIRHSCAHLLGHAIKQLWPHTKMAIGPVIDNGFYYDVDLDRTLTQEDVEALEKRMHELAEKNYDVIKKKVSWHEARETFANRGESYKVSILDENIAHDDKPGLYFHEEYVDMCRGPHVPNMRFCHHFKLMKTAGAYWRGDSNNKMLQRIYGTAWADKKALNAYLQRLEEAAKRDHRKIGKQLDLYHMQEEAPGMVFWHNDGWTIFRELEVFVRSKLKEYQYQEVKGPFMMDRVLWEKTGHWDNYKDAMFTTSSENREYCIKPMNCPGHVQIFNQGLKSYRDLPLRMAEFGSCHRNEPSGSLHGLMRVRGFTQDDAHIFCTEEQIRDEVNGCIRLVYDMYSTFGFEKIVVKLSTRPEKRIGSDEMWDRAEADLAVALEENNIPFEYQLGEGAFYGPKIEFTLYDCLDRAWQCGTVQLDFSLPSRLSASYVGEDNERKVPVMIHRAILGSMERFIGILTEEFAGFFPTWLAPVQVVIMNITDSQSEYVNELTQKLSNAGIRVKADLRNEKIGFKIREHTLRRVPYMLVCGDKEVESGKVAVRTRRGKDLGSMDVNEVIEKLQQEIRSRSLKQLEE
Method: (§1) To measure the effects of 1–4 on ThrRS canonical tRNA charging activity, an assay modified from that reported by Ruan et al.[53] was used, where active enzyme was incubated with its necessary substrates and its activity measured using ^14C labeled Thr and a liquid scintillation counter. Purified ThrRS protein (10 nM) was pre-incubated with varying concentrations of compounds 1–4 or ACN for 10 min. After pre-incubation, ThrRS samples were added to a master reaction mixture with the final component concentrations of HEPES (100 mM, pH 7.0), ATP (4 mM), MgCl2 (10 mM), L-[U-^14C]threonine (50 μM, Moravek Inc.), and tRNA^Thr (5 μM). This mixture was incubated at room temperature for 10 min, with samples taken at 1, 2.5, 5, and 10 min. At each time point, a 7 μL aliquot was spotted onto a 5% trichloroacetic acid (TCA) presoaked 3 MM Whatman paper (Cytiva) squares (repeated in triplicate). After allowing the spots to dry, the Whatman paper was washed three times with 5% TCA, and once with 95% EtOH. The Whatman paper was dried and the counts on each square of paper analyzed using a Tri-Carb 2910 TR liquid scintillation counter using Hydrofluor Liquid Scintillation Fluid (National Diagnostics). To calculate IC50 values, fractional initial velocities (velocity of inhibited reaction/velocity in the absence of inhibitor) were plotted against the log of 1 concentration and then fitted to eqn (1), using GraphPad Prism.1 [drawing 1]

E. coli BW25113 = experiment: Spot-on-lawn MIC bioassay; format: cell-based; details: for MIC: Escherichia coli
Method: (§2) Indicator strains were grown for 16–18 h in LB (5 mL) by inoculation from a single colony. An aliquot of the resulting culture (500 μL) was then used to inoculate LB (50 mL in 250 mL Erlenmeyer flasks), followed by orbital shaking at 250 rpm until they reached an OD600 of 0.3–0.4. These cultures were then diluted 1 : 10 with molten soft nutrient agar (SNA), before pouring into appropriately sized Petri dishes to set. Serial dilutions of the test compounds (from 256 μg mL^−1 to 1 μg mL^−1 plus an additional sample at 1000 μg mL^−1) were prepared in acetonitrile (ACN), and 4 μL of each sample was applied directly onto the SNA surface. Kanamycin (50 μg mL^−1), apramycin (50 μg mL^−1) or aureobasidin A (0.2 μg mL^−1) were used as positive controls, as appropriate, and ACN or water (4 μL) were used as negative controls. […] Experiments were carried out in at least triplicate for each strain.
(§3) The method was the same as for the antibacterial MIC assays described above, with the following modifications: for excess iron, Fe(NO3)3·9H2O stock (400 mM) was added to give a final concentration of 1.5 or 2.0 mM; for iron depletion, bipy stock (1 M) was added to give a final concentration of 150 μM. For MRSA, 1 was further diluted to 0.5 0.25 and 0.125 μg mL^−1 due to a decrease in MIC under excess iron conditions. The general effect of excess iron on the activity of alternative antibiotics was determined by performing a similar serial dilution of carbenicillin, kanamycin, streptomycin, nitrofurantoin and chloramphenicol in the presence of Fe^3+.

P. aeruginosa PA01 = experiment: Spot-on-lawn MIC bioassay; format: cell-based; details: for MIC: Pseudomonas aeruginosa
Method: as §2, §3

ObaO = experiment: Aminoacylation assay; format: biochemical, P. fluorescens
Method: as §1

PfThrRS = PfThrRS (Pseudomonas fluorescens, UniProt C3JZN7); experiment: Aminoacylation assay; format: biochemical, P. fluorescens; details: enzyme 10 nM; read-out: concentration of full inhibition
PfThrRS, sequence (C3JZN7 whole entry): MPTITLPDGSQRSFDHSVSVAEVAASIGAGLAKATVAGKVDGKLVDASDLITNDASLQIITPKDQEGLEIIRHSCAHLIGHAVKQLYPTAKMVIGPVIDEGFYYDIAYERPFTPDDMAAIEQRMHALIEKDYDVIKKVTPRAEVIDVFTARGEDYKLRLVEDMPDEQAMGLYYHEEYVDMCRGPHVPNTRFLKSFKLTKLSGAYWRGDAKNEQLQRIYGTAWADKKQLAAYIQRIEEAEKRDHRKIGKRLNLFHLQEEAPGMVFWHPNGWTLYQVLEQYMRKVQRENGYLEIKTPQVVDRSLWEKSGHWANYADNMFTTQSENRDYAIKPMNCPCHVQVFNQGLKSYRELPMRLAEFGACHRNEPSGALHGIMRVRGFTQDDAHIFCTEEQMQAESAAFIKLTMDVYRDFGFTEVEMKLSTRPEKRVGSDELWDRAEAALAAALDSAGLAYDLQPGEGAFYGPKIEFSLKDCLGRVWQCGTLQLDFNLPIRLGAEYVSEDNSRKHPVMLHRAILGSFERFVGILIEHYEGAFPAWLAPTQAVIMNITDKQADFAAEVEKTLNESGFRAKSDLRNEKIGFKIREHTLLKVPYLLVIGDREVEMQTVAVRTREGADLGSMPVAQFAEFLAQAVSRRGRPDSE
Method: as §1

B. subtilis = experiment: Spot-on-lawn MIC bioassay; format: cell-based, B. subtilis EC 1524; details: Bacillus subtilis, standard conditions, read-out: MIC
Method: as §2

E. coli BW25113 Δ3 = experiment: Spot-on-lawn MIC bioassay, TBDT knock-out mutant; format: cell-based; details: for MIC: Escherichia coli
Method: as §2, §3

E. coli BW25113 Δ6 = experiment: Spot-on-lawn MIC bioassay, TBDT knock-out mutant; format: cell-based; details: for MIC: Escherichia coli
Method: as §2, §3

S. cerevisiae = experiment: Spot-on-lawn MIC bioassay; format: cell-based, S. cerevisiae NCYC 2939; details: Saccharomyces cerevisiae
Method: as §2

E. coli 25922 = experiment: Spot-on-lawn MIC bioassay; format: cell-based, E. coli ATCC 25922
Method: as §2, §3

E. coli NR698 = experiment: Spot-on-lawn MIC bioassay; format: cell-based; details: Escherichia coli, NR698
Method: as §2

[1] = BW25113, iron depleted, +bipy (150 μM)
[2] = with vs without Fe^3+ in growth agar
[3] = BW25113, iron replete, +Fe^3+ (2 mM)

O=C(N[C@@H]1C(=O)O[C@@H]1Cc1ccc([N+](=O)[O-])cc1)c1cccc(O)c1O [compound 1, Obafluorin]
protection of infected mice (in words) (Streptococcus pyogenes): can protect mice | toxicity in mice (in words) (Streptococcus pyogenes): no observable toxicity | concentration at which complete inhibition was observed (EcThrRS): around 100 nM | IC50 (EcThrRS; 10 min preincubation with compound, read-out: IC50): 35 ± 4 nM | MIC (E. coli BW25113; [1]): 256 µg/mL (≈ 714 µM) | MIC (E. coli BW25113; BW25113, iron replete, +Fe^3+ (2 mM), read-out: MIC): ≤ 1 µg/mL | MIC (E. coli BW25113; BW25113, standard conditions): 256 µg/mL (≈ 714 µM) | decrease in MIC upon addition of Fe^3+ (E. coli BW25113; with vs without Fe^3+): ≥ 256 fold | MIC (P. aeruginosa PA01; PA01, +Fe^3+ (1.5 mM) in the media): ≤ 1 µg/mL | MIC (P. aeruginosa PA01; PA01, spot-on-lawn, standard conditions): 128 µg/mL (≈ 357 µM) | decrease in MIC with added Fe^3+ (P. aeruginosa PA01; [2]): ≥ 128 fold | inhibition of aminoacylation (in words) (ObaO; 0–5 μM (up to 5000 nM)): no observable inhibition; also recorded: no significant inhibition | IC50 (ObaO; enzyme 10 nM, 10 min preincubation, 0–5 μM compound): not inhibited; also recorded: No inhibition | IC100 (PfThrRS): 0.01 µM | MIC (B. subtilis): 4 µg/mL (≈ 11.2 µM) | MIC (E. coli BW25113 Δ3; [1]): 256 µg/mL (≈ 714 µM) | MIC (E. coli BW25113 Δ3; [3]): ≤ 1 µg/mL | MIC (E. coli BW25113 Δ3; BW25113, standard conditions): 256 µg/mL (≈ 714 µM) | decrease in MIC upon addition of Fe^3+ (E. coli BW25113 Δ3; with vs without Fe^3+): ≥ 256 fold | MIC (E. coli BW25113 Δ6; [3]): ≤ 1 µg/mL | MIC (E. coli BW25113 Δ6; BW25113, standard conditions): 256 µg/mL (≈ 714 µM) | decrease in MIC upon addition of Fe^3+ (E. coli BW25113 Δ6; with vs without Fe^3+): ≥ 256 fold | MIC (S. cerevisiae; Figure S12 legend, read-out: Minimum inhibitory concentration): 1000 µg/mL (≈ 2790 µM) | MIC (S. cerevisiae; standard conditions, read-out: MIC): 1000 µg/mL (≈ 2790 µM) | MIC (E. coli 25922; Escherichia coli, 25922, iron depleted, +bipy (150 μM)): 256 µg/mL (≈ 714 µM) | MIC (E. coli 25922; Escherichia coli, 25922, +Fe^3+ (2 mM) in the media, read-out: MIC): ≤ 1 µg/mL | MIC (E. coli 25922; Escherichia coli, 25922, spot-on-lawn, standard conditions): 256 µg/mL (≈ 714 µM) | decrease in MIC with added Fe^3+ (E. coli 25922; [2]): ≥ 256 fold | MIC (E. coli NR698): 4 µg/mL (≈ 11.2 µM)
